In patent US20220073536A1 (Rigel Pharmaceuticals, Inc., priority 2003, published 2022):
pIC50: −log10 of the molar value. Where two headings read alike, the source gives them in different places.

Test system: cultured human mast cells (CHMC)
Assay: CHMC low cell density IgE activation: tryptase assay
Type: cell-based
Details: IgE activation
Description: Inhibition of degranulation was measured at both low and high cell density by quantifying the release of the granule specific factors tryptase, histamine and hexosaminidase. Inhibition of release and/or synthesis of lipid mediators was assessed by measuring the release of leukotriene LTC4 and inhibition of release and/or synthesis of cytokines was monitored by quantifying TNF-α, IL-6 and IL-13. Tryptase and hexosaminidase were quantified using fluorogenic substrates as described in their respective examples. […] The protocols of the various assays are provided below.
Pellet CHMC cells (980 rpm, 10 min) and resuspend in pre-warmed MT. Add 65 ul of cells to each 96-well plate. Depending on the degranulation activity for each particular CHMC donor, load 1000-1500 cells/well. Mix four times followed by a 1 hr incubation at 37° C. […] Stimulate cells by adding 25 ul of 6× anti-IgE solution to the appropriate plates. Add 25 ul MT to un-stimulated control wells. Mix twice following addition of the anti-IgE. Incubate at 37° C. for 30 minutes. […] Spin plates at 1000 rpm for 10 min to pellet cells. Transfer 25 ul of supernatant to a 96-well black bottom plate and add 100 ul of freshly diluted tryptase substrate solution to each well. Incubate plates at room temperature for 30 min.

[1] = low cell density CHMC, tryptase, 3 pt, read-out: LD Tryptase, CHMC, IgE, 3 pt
[2] = low cell density CHMC, tryptase, 8 pt, read-out: LD Tryptase, CHMC, IgE, 8 pt
[3] = Homo sapiens, Mast cell, low cell density CHMC, tryptase release, 8 pt, read-out: LD Tryptase, CHMC, IgE, 8 pt
[4] = low cell density CHMC, tryptase release, 8 pt, read-out: LD Tryptase, CHMC, IgE, 8 pt
[5] = Homo sapiens, Mast cell, low cell density CHMC, tryptase release, 3 pt, read-out: LD Tryptase, CHMC, IgE, 3 pt
[6] = low cell density CHMC, tryptase release, 3 pt, read-out: LD Tryptase, CHMC, IgE, 3 pt

| Compound | pIC50 [3] | further results |
| --- | --- | --- |
| 5-Fluoro-N2,N4-bis (4-[N-[methoxycarbonylmethylene]aminocarbonyl]phenyl)-2,4-pyrimidinediamine [Compound 1332] | – | pIC50 [1]: > 5.00; pIC50 [2]: > 5.00 |
| 5-Fluoro-N2- (3-hydroxyphenyl)-N4- (4-[N-[methoxycarbonylmethylene]aminocarbonyl]phenyl)-2,4-pyrimidinediamine [Compound 1328] | – | pIC50 [2]: > 5.00 |
| 5-Fluoro-N2-[2- (N-methylamino)carbonylindol-7-yl]-N4-[3,4-(tetrafluoroethylenedioxy)phenyl]-2,4-pyrimidinediamine [Compound 365] | – | pIC50 [1]: > 5.00 |
| CC1Sc2ccc(Nc3nc(Nc4cccc(O)c4)ncc3F)cc2NC1=O (racemic) [Compound 282] | > 5.00 | – |
| CC1C(=O)Nc2cc(Nc3nc(Nc4cccc(O)c4)ncc3F)ccc2S1(=O)=O (racemic) [Compound 284, racemic-5-Fluoro-N2-[3-hydoxyphenyl]-N4-(2-methyl-1,1,3-trioxo-2H,4H-benzo[1,4]thiazin-6-yl)-2,4-pyrimidinediamine] | – | pIC50 [4]: > 5.00 |
| CNC(=O)COc1cccc(Nc2ncc(F)c(Nc3ccc4c(c3)NC(=O)C(C)S4(=O)=O)n2)c1 (racemic) [Compound 285, racemic-5-Fluoro-N2-[3-(N-methylamino)carbonylmethyleneoxyphenyl]-N4-(2-methyl-1,1,3-trioxo-2H,4H-benzo[1,4]thiazin-6-yl)-2,4-pyrimidinediamine] | – | pIC50 [4]: > 5.00 |
| COc1ccc(Nc2ncc(F)c(Nc3ccc4c(c3)NC(=O)C(C)S4(=O)=O)n2)cc1F (racemic) [Compound 296] | > 5.00 | pIC50 [5]: > 5.00 |
| COc1ccc(Nc2ncc(F)c(Nc3ccc4c(c3)NC(=O)C(C)S4)n2)cc1F (racemic) [Compound 298] | > 5.00 | pIC50 [5]: > 5.00 |
| CC1Sc2ccc(Nc3nc(Cl)ncc3F)cc2NC1=O (racemic) [Compound 314, racemic-N2-Chloro-5-fluoro-N4-(2-methyl-3-oxo-2H,4H-benzo[1,4]thiazin-6-yl)-4-pyrimidineamine] | – | pIC50 [6]: > 5.00 |
| CC1C(=O)Nc2cc(Nc3nc(Cl)ncc3F)ccc2S1(=O)=O (racemic) [Compound 317, racemic-N2-Chloro-5-fluoro-N4-(2-methyl-1,1,3-trioxo-2H,4H-benzo[1,4]thiazin-6-yl)-4-pyrimidineamine] | – | pIC50 [6]: < 5.00 |
| CC1C(=O)Nc2cc(-c3nc(Nc4ccc5oncc5c4)nc(N)c3F)ccc2S1(=O)=O (racemic) [Compound 929] | – | pIC50 (Homo sapiens, Mast cell, low cell density, 3 pt, read-out: LD Tryptase, CHMC, IgE, 3 pt): > 5.00 |
| CC1Sc2ccc(Nc3nc(Nc4ccc5oncc5c4)ncc3F)cc2NC1=O (racemic) [Compound 931] | – | pIC50 (Homo sapiens, Mast cell, low cell density, 8 pt, read-out: LD Tryptase, CHMC, IgE, 8 pt): > 5.00 |
| NC1CCOc2ccc(Nc3nc(Nc4ccc(-c5cnco5)cc4)ncc3F)cc21 (racemic) [Compound 1293, (R,S)-N4-[4-Amino-3,4-dihydro-2H-1-benzopyran-6-yl]-5-fluoro-N2-[4-(oxazol-5-yl)phenyl]-2,4-pyrimidinediamine] | – | pIC50 [2]: > 5.00 |
| N[C@@H]1CCOc2ccc(Nc3nc(Nc4ccc(-c5ncco5)cc4)ncc3F)cc21 (racemic) [Compound 1294, (R,S)-N4-[4-Amino-3,4-dihydro-2H-1-benzopyran-6-yl]-5-fluoro-N2-[4-(oxazol-2-yl)phenyl]-2,4-pyrimidinediamine] | – | pIC50 [2]: > 5.00 |
| C[C@@H]1Oc2ccc(Nc3nc(Nc4ccc5cn[nH]c5c4)ncc3F)cc2NC1=O [Compound 200] | > 5.00 | – |
| C[C@@H]1Oc2ccc(Nc3nc(Nc4ccc5cnn(C)c5c4)ncc3F)cc2NC1=O [Compound 201] | > 5.00 | – |
| Cc1cc(C)cc(Nc2ncc(F)c(Nc3ccc4c(c3)NC(=O)[C@@H](C)O4)n2)c1 [Compound 204, (R)-N2-(3,5-Dimethylphenyl)-5-fluoro-N4-(2-methyl-3-oxo-2H,4H-benz[1,4]oxazin-6-yl)-2,4-pyrimidinediamine] | > 5.00 | – |

| Compound | pIC50 [3] | further results |
| --- | --- | --- |
| C[C@H]1Oc2ccc(Nc3nc(Nc4cc5c6c(c4)c(CCO)cn6CCO5)ncc3F)cc2NC1=O [Compound 205, (R)-5-Fluoro-N2-[6-(2-hydroxyethyl)-2,3-dihydropyrrolo[1,2,3-d,e]benzoxazin-8-yl]-N4-(2-methyl-3-oxo-2H,4H-benz[1,4]oxazin-6-yl)-2,4-pyrimidinediamine] | – | pIC50 [4]: > 5.00 |
| CC1(C)COc2ccc(Nc3nc(Nc4cc5c6c(c4)c(CCO)cn6CCO5)ncc3F)cc2N1 [Compound 206, N4-(3,4-Dihydro-3,3-dimethyl-2H,4H-benz[1,4]oxazin-6-yl)-5-fluoro-N2-[6-(2-hydroxyethyl)-2,3-dihydropyrrolo[1,2,3-d,e]benzoxazin-8-yl]-2,4-pyrimidinediamine] | – | pIC50 [4]: > 5.00 |
| COc1ccc(Nc2ncc(F)c(Nc3ccc4c(c3)NC(=O)[C@@H](C)O4)n2)cc1Cl [Compound 207] | > 5.00 | – |
| C[C@H]1Oc2ccc(Nc3nc(Nc4ccc5cnn(C)c5c4)ncc3F)cc2NC1=O [Compound 210] | > 5.00 | – |
| COc1ccc(Nc2ncc(F)c(Nc3ccc4c(c3)NC(=O)[C@@H](C)O4)n2)cc1Cl [Compound 211] | – | pIC50 [5]: > 5.00 |
| Cc1cc(C)cc(Nc2ncc(F)c(Nc3ccc4c(c3)NC(=O)C(C)S4(=O)=O)n2)c1 (stereo not drawn) [Compound 264] | > 5.00 | pIC50 [5]: > 5.00 |
| CC1C(=O)Nc2cc(Nc3nc(Nc4ccc5cn[nH]c5c4)ncc3F)ccc2S1(=O)=O (stereo not drawn) [Compound 265] | > 5.00 | pIC50 [5]: > 5.00 |
| COc1cc(Nc2ncc(F)c(Nc3ccc4c(c3)NC(=O)C(C)(C)S4(=O)=O)n2)cc(OC)c1 [Compound 267] | > 5.00 | – |
| Cc1cc(C)cc(Nc2ncc(F)c(Nc3ccc4c(c3)NC(=O)C(C)(C)S4(=O)=O)n2)c1 [Compound 268] | > 5.00 | – |
| COc1cc(Nc2ncc(F)c(Nc3ccc4c(c3)NC(=O)C(C)S4)n2)cc(OC)c1 (stereo not drawn) [Compound 270] | > 5.00 | – |
| Cc1cc(C)cc(Nc2ncc(F)c(Nc3ccc4c(c3)NC(=O)C(C)S4)n2)c1 (stereo not drawn) [Compound 271] | > 5.00 | – |
| CC1(C)C(=O)Nc2cc(Nc3nc(Nc4ccc5cn[nH]c5c4)ncc3F)ccc2S1(=O)=O [Compound 273] | > 5.00 | – |
| CC1(C)C(=O)Nc2cc(Nc3nc(Nc4ccc5[nH]ncc5c4)ncc3F)ccc2S1(=O)=O [Compound 274] | > 5.00 | – |
| CNC(=O)COc1cccc(Nc2ncc(F)c(Nc3ccc4c(c3)NC(=O)C(C)(C)S4(=O)=O)n2)c1 [Compound 275, N4-(2,2-Dimethyl-1,1,3-trioxo-4H-benzo[1,4]thiazin-6-yl)-5-fluoro-N2-[3-(N-methylamino)carbonylmethyleneoxyphenyl]-2,4-pyrimidinediamine] | – | pIC50 [4]: > 5.00 |
| COc1ccc(Nc2ncc(F)c(Nc3ccc4c(c3)NC(=O)C(C)(C)S4(=O)=O)n2)cc1Cl [Compound 276] | – | pIC50 [4]: > 5.00 |
| CC1Sc2ccc(Nc3nc(Nc4ccc5cn[nH]c5c4)ncc3F)cc2NC1=O (stereo not drawn) [Compound 277] | > 5.00 | – |
| CNC(=O)COc1cccc(Nc2ncc(F)c(Nc3ccc4c(c3)NC(=O)C(C)S4)n2)c1 (stereo not drawn) [Compound 279, 5-Fluoro-N2-[3-(N-methylamino)carbonylmethyleneoxyphenyl]-N4-(2-methyl-3-oxo-2H,4H-benzo[1,4]thiazin-6-yl)-2,4-pyrimidinediamine] | – | pIC50 [4]: > 5.00 |

More lines, main results first:

| pIC50 [3] | Compound | further results |
| --- | --- | --- |
| > 5.00 | COc1ccc(Nc2ncc(F)c(Nc3ccc4c(c3)NC(=O)C(C)S4(=O)=O)n2)cc1Cl (racemic) [Compound 286] | – |
| > 5.00 | Cc1cc(C)cc(Nc2ncc(F)c(Nc3ccc4c(c3)NC(=O)[C@H](C)O4)n2)c1 [Compound 202, (S)-N2-(3,5-Dimethylphenyl)-5-fluoro-N4-(2-methyl-3-oxo-2H,4H-benz[1,4]oxazin-6-yl)-2,4-pyrimidinediamine] | – |
| > 5.00 | COc1cc(Nc2ncc(F)c(Nc3ccc4c(c3)NC(C)(C)CO4)n2)cc(OC)c1 [Compound 203, N4-(3,4-Dihydro-3,3-dimethyl-2H,4H-benz[1,4]oxazin-6-yl)-N2-(3,5-dimethoxyphenyl)-5-fluoro-2,4-pyrimidinediamine] | – |
| > 5.00 | COc1cc(C)c(Nc2ncc(F)c(Nc3ccc4c(c3)NC(=O)[C@@H](C)O4)n2)cc1Cl [Compound 213] | pIC50 [5]: > 5.00 |
| > 5.00 | COc1cc(Nc2ncc(F)c(Nc3ccc4c(c3)NC(=O)C(C)S4(=O)=O)n2)cc(OC)c1 (stereo not drawn) [Compound 263, N2-(3,5-Dimethoxyphenyl)-N4-(dioxide-2-methyl-1,1,3-trioxo-4H-benzo[1,4]thiazin-6-yl)-5-fluoro-2,4-pyrimidinediamine] | pIC50 [5]: > 5.00 |
| > 5.00 | COc1cc(Nc2ncc(F)c(Nc3ccc4c(c3)NC(=O)C(C)S4(=O)=O)n2)cc(OC)c1OC (stereo not drawn) [Compound 266] | pIC50 [5]: > 5.00 |
| > 5.00 | COc1cc(Nc2ncc(F)c(Nc3ccc4c(c3)NC(=O)C(C)(C)S4(=O)=O)n2)cc(OC)c1OC [Compound 269] | – |
| > 5.00 | COc1cc(Nc2ncc(F)c(Nc3ccc4c(c3)NC(=O)C(C)S4)n2)cc(OC)c1OC (stereo not drawn) [Compound 272] | – |
| > 5.00 | CC1Sc2ccc(Nc3nc(Nc4ccc5[nH]ncc5c4)ncc3F)cc2NC1=O (stereo not drawn) [Compound 278] | – |
